This is an account of results in BindingDB's records for doi:10.1016/j.ejmech.2017.10.076 (Wayne State University, 2018).

Assay [1] concerns the target T1, Histone deacetylase 8 (Homo sapiens, UniProt Q9BY41).
T1 sequence (Q9BY41 whole entry): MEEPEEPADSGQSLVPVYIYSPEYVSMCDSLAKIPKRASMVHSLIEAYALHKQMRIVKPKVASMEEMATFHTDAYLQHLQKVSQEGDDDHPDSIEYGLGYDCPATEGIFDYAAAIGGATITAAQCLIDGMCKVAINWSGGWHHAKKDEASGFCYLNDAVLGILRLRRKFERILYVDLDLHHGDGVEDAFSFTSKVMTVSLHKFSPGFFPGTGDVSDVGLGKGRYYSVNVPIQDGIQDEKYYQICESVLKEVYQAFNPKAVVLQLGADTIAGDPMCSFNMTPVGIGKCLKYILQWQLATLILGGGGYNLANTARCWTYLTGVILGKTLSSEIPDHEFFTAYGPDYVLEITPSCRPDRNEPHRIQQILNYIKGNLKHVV
The assay can be described thus: Inhibition of human recombinant full-length C-terminal His-tagged HDAC8 expressed in baculovirus infected Sf9 insect cell preincubated for 15 mins followed by HDAC-Glo substrate addition measured after 30 mins by fluorimetric method.

Assay [2] concerns the target Histone deacetylase 1 (Homo sapiens, UniProt Q13547). The assay is described as follows: Inhibition of HDAC1 in human HeLa-S3 cell lysates preincubated for 15 mins followed by HDAC-Glo substrate addition measured after 30 to 40 mins by fluorimetric method.
In assay [3] the target is Histone deacetylase 3 (Homo sapiens, UniProt O15379). The assay is described as follows: Inhibition of HDAC3 in human HeLa-S3 cell lysates preincubated for 15 mins followed by HDAC-Glo substrate addition measured after 30 to 40 mins by fluorimetric method.
The target in assay [4] is T2, Histone deacetylase 6 (Homo sapiens, UniProt Q9UBN7).
T2 sequence (Q9UBN7 whole entry): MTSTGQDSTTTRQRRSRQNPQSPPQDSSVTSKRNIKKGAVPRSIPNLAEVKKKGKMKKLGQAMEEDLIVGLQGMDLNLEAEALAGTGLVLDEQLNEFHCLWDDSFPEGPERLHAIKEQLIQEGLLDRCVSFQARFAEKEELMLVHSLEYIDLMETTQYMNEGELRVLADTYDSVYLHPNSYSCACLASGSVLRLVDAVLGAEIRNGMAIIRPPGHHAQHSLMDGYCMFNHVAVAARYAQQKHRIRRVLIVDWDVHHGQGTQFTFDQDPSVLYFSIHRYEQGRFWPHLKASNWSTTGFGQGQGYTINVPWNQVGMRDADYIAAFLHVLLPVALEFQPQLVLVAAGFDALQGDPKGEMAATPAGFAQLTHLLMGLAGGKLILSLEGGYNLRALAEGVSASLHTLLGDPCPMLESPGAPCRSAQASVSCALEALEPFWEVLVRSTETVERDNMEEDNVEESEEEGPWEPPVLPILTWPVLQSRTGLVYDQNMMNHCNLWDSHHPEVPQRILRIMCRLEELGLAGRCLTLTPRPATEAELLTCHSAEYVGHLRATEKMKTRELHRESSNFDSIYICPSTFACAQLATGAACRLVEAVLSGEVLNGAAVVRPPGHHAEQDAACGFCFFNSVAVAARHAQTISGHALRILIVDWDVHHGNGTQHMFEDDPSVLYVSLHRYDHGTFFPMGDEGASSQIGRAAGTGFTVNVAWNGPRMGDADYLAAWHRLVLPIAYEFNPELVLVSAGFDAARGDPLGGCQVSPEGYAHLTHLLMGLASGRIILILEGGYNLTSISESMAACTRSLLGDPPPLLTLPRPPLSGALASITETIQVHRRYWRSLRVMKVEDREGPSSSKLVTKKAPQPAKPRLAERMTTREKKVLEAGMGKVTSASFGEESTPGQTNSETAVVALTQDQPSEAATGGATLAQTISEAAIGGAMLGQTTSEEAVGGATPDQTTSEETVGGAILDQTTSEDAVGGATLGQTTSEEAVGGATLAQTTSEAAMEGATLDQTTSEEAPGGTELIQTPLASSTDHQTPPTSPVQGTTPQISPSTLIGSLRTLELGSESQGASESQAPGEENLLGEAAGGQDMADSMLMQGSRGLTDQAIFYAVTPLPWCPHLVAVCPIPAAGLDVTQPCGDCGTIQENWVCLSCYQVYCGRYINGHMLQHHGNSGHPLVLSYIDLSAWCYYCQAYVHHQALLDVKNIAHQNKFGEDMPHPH
The assay is described as follows: Inhibition of HDAC6 in human HeLa-S3 cell lysates preincubated for 15 mins followed by HDAC-Glo substrate addition measured after 30 to 40 mins by fluorimetric method.

Molecules are shown by their SMILES.

Chain of Histone deacetylase 1 (Q13547 whole entry): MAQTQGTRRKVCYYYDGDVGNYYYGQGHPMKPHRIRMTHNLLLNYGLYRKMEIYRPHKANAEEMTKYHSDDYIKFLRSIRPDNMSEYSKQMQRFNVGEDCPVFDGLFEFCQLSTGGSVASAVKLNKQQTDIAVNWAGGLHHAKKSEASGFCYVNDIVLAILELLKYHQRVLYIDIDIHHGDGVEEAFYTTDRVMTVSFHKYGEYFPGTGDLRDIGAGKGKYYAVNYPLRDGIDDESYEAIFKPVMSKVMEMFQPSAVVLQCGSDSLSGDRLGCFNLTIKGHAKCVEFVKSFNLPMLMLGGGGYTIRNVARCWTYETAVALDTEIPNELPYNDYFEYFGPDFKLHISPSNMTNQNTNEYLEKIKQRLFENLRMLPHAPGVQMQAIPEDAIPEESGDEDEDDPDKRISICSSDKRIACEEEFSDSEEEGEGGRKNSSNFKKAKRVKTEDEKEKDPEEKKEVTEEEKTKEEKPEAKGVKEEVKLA
Chain of Histone deacetylase 3 (O15379 whole entry): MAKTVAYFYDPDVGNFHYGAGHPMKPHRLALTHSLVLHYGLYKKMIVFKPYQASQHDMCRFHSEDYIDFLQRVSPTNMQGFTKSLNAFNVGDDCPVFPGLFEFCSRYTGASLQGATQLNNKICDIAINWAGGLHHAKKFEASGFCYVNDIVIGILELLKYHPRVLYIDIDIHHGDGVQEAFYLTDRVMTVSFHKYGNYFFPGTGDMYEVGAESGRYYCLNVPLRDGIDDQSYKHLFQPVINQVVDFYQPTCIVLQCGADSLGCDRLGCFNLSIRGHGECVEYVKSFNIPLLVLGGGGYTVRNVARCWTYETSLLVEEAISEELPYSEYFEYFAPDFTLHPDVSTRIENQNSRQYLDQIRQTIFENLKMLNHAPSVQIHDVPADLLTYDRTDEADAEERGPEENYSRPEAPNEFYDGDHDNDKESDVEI

Usually IC50 stands for the concentration that gives 50% inhibition. In the case of `O=C(CCC(CCCC(=O)Nc1ccccc1)c1ccccc1)NO` (centres undefined), the concentration for half-maximal inhibition (IC50) in assay [1] was 0.29 µM; in assay [2], 11 µM; in assay [3], 23 µM; in assay [4], 0.11 µM.
